Measured values: patent US11739068B2, “Polymorphs of N-[(3-fluoro-4-methoxypyridin-2-yl)methyl]-3-(methoxymethyl)-1-({4-[(2-oxopyridin-1-yl)methyl]phenyl}methyl)pyrazole-4-carboxamide and salts thereof” (KALVISTA PHARMACEUTICALS LIMITED, priority 2016, dated 2023)

Experiments:
[1] = in vivo; cited from earlier work
[2] = Visual aqueous solubility; format: physicochemical; details: water, thermodynamic from solid
Procedure: Form 1 (10 mg) was weighed into a glass vial and water was added in 100 μL portions up to 3 mL then 1 mL portions thereafter. Solubility was assessed visually following a brief period of equilibration.
Form 18 (10 mg) was weighed into a glass vial and water was added in 100 μL portions up to 3 mL then 1 mL portions thereafter. Solubility was assessed visually following a brief period of equilibration.
Form 8 (10 mg) was weighed into a glass vial and water was added in 100 μL portions up to 3 mL then 1 mL portions thereafter. Solubility was assessed visually following a brief period of equilibration.
Form 15 (10 mg) was weighed into a glass vial and water was added in 100 μL portions up to 3 mL then 1 mL portions thereafter. Solubility was assessed visually following a brief period of equilibration.
Form 16 (10 mg) was weighed into a glass vial and water was added in 100 μL portions up to 3 mL then 1 mL portions thereafter. Solubility was assessed visually following a brief period of equilibration.

[3] = Gravimetric Vapour Sorption (GVS); format: physicochemical
Procedure: Gravimetric Vapour Sorption (GVS) data were collected using the following method: Approximately 10 mg of sample was placed into a wire-mesh vapour sorption balance pan and loaded into an ‘IgaSorp’ vapour sorption balance (Hiden Analytical Instruments). The sample was then dried by maintaining a 0% humidity environment until no further weight change was recorded. Subsequently, the sample was then subjected to a ramping profile from 0-90% RH at 10% RH increments, maintaining the sample at each step until equilibration had been attained (99% step completion). Upon reaching equilibration, the % RH within the apparatus was ramped to the next step and the equilibration procedure repeated. After completion of the sorption cycle, the sample was then dried using the same procedure. The weight change during the sorption/desorption cycles were then monitored, allowing for the hygroscopic nature of the sample to be determined.

[4] = Stability study of Form 1 (double polyethylene bags, HDPE bottle); format: physicochemical; details: for Change in the XRPD diffractogram on storage: after 1 month and 3 months
Procedure: Further evidence of the suitability of the crystalline forms of N-[(3-fluoro-4-methoxypyridin-2-yl)methyl]-3-(methoxymethyl)-1-({4-[(2-oxopyridin-1-yl)methyl]phenyl}methyl)pyrazole-4-carboxamide for pharmaceutical development is provided by the stability data disclosed herein. Two samples of Form 1 of N-[(3-fluoro-4-methoxypyridin-2-yl)methyl]-3-(methoxymethyl)-1-({4-[(2-oxopyridin-1-yl)methyl]phenyl}methyl)pyrazole-4-carboxamide were stored at 25° C./60% RH and 40° C./75% RH packed in double polyethylene bags and sealed in a HDPE bottle.
A sample of Form 1 was packed in double polyethylene bags and sealed in a HDPE bottle and stored at conditions of 25° C./60% RH. The sample was reanalysed after 1 month and 3 months by XRPD (using Method B). No change in the XRPD diffractogram was observed when the sample was stored at 25° C./60% RH after either 1 month or 3 months.
Further tests on the sample of Form 1 stored at 25° C./60% RH were carried out as described in the table below:
A second sample of Form 1 was packed in double polyethylene bags and sealed in a HDPE bottle and stored under accelerated stability conditions of 40° C./75% RH. The sample was reanalysed after 1 month and 3 months by XRPD (using Method B). No change in the XRPD diffractogram was observed when the sample was stored at 40° C./75% RH after either 1 month or 3 months.
Further tests on the sample of Form 1 stored at 40° C./75% RH were carried out as described in the table below: […]

Slurry studies = format: physicochemical; details: 90/10 IPA/water, ambient temperature, 72 hrs
Procedure: Form 1 (20 mg) was suspended in 90/10 IPA/water (200 μL or […]) and shaken at ambient temperature for 72 hrs. The supernatant was evaporated rather than filtered due to the small volume and the resulting solid was examined by XRPD (FIG. 6).
The supernatant was evaporated rather than filtered due to the small volume and the resulting solid was examined by XRPD (FIG. 28).
The supernatant was evaporated rather than filtered due to the small volume and the resulting solid was examined by XRPD (FIG. 34).
The supernatant was evaporated rather than filtered due to the small volume and the resulting solid was examined by XRPD (FIG. 40).

Human KLK1 = biological target: T1, Human KLK1 (Homo sapiens, UniProt P06870); test: Determination of the IC50 for KLK1; format: biochemical; details: 25° C., fluorogenic substrate H-DVal-Leu-Arg-AFC
T1 construct: purchased Callbiochem
Procedure: KLK1 inhibitory activity in vitro was determined using standard published methods (see e.g. Johansen et al., Int. J. Tiss. Reac. 1986, 8, 185; Shori et al., Biochem. Pharmacol., 1992, 43, 1209; Sturzebecher et al., Biol. Chem. Hoppe-Seyler, 1992, 373, 1025). Human KLK1 (Callbiochem) was incubated at 25° C. with the fluorogenic substrate H-DVal-Leu-Arg-AFC and various concentrations of the test compound. Residual enzyme activity (initial rate of reaction) was determined by measuring the change in […] at 410 nm and the IC50 value for the test compound was determined.

[5] = system: LPS-induced disseminated intravascular coagulation; details: cited from earlier work
blood = blood contacted with inhibitor; cited from earlier work
[6] = system: intrinsic pathway of coagulation; details: in vitro; cited from earlier work
[7] = in vivo; cited from earlier work; remark: listed apart in the source

T1 sequence (P06870 25-262): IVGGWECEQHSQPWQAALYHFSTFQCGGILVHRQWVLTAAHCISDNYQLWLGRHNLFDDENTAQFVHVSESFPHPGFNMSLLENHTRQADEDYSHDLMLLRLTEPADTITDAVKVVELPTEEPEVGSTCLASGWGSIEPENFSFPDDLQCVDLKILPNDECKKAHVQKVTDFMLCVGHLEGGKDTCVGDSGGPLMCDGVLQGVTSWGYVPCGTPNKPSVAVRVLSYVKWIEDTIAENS

C=Cc1cc(C(=O)Nc2ccc(C(=N)N)cc2)c(-c2ccc(C(=O)NCC3CC3)nc2C(=O)O)cc1OC [BCX4161]
Oral availability [1]: orally available

COCc1nn(Cc2ccc(Cn3ccccc3=O)cc2)cc1C(=O)NCc1nccc(OC)c1F [Form 1, N-[(3-fluoro-4-methoxypyridin-2-yl)methyl]-3-(methoxymethyl)-1-({4-[(2-oxopyridin-1-yl)methyl]phenyl}methyl)pyrazole-4-carboxamide]
solubility [2]: < 500 µg/mL | %-Wt (dry basis) ([3]; adsorption, about 0 %-RH): 0.04722% | %-Wt (dry basis) ([3]; adsorption, about 10 %-RH): 0.23% | %-Wt (dry basis) ([3]; adsorption, about 20 %-RH): 0.3541% | %-Wt (dry basis) ([3]; adsorption, about 30 %-RH): 0.7126% | %-Wt (dry basis) ([3]; adsorption, about 40 %-RH): 0.825% | %-Wt (dry basis) ([3]; adsorption, about 50 %-RH): 1.207% | %-Wt (dry basis) ([3]; adsorption, about 60 %-RH): 1.699% | %-Wt (dry basis) ([3]; adsorption, about 70 %-RH): 1.912% | %-Wt (dry basis) ([3]; adsorption, about 80 %-RH): 2.186% | %-Wt (dry basis) ([3]; adsorption, about 90 %-RH): 3.226% | %-Wt (dry basis) ([3]; desorption, about 0 %-RH): 0.000368% | %-Wt (dry basis) ([3]; desorption, about 5 %-RH): 0.1269% | %-Wt (dry basis) ([3]; desorption, about 15 %-RH): 0.5017% | %-Wt (dry basis) ([3]; desorption, about 25 %-RH): 0.7008% | %-Wt (dry basis) ([3]; desorption, about 35 %-RH): 1.017% | %-Wt (dry basis) ([3]; desorption, about 45 %-RH): 1.525% | %-Wt (dry basis) ([3]; desorption, about 55 %-RH): 1.685% | %-Wt (dry basis) ([3]; desorption, about 65 %-RH): 1.865% | %-Wt (dry basis) ([3]; desorption, about 75 %-RH): 2.116% | %-Wt (dry basis) ([3]; desorption, about 85 %-RH): 2.547% | Increase in water content by GVS (hygroscopicity, in words) ([3]; up to 70% relative humidity): only a relatively gradual increase in water content | Appearance ([4]; 25° C./60% RH, 1 month): Off-white | Assay by HPLC (on an anhydrous and solvent free basis) ([4]; 25° C./60% RH, 1 month): 99.5 % w/w | DSC Tonset ([4]; 25° C./60% RH, 1 month): 151.1 °C | DSC Tpeak ([4]; 25° C./60% RH, 1 month): 152.4 °C | HPLC assay (on an “as is” basis) ([4]; 25° C./60% RH, 1 month): 99.4 % w/w | Polymorph by XRPD ([4]; 25° C./60% RH, 1 month): Conforms to | Purity by HPLC ([4]; 25° C./60% RH, 1 month): 99.62 area % | Total impurities ([4]; 25° C./60% RH, 1 month): 0.38 area % | Water by Karl Fischer analysis ([4]; 25° C./60% RH, 1 month): <0.1 % w/w | Appearance ([4]; 25° C./60% RH, 3 months): Off-white | Assay by HPLC (on an anhydrous and solvent free basis) ([4]; 25° C./60% RH, 3 months): 99.6 % w/w | DSC Tonset ([4]; 25° C./60% RH, 3 months): 150.8 °C | DSC Tpeak ([4]; 25° C./60% RH, 3 months): 152.2 °C | HPLC assay (on an “as is” basis) ([4]; 25° C./60% RH, 3 months): 99.5 % w/w | Polymorph by XRPD ([4]; 25° C./60% RH, 3 months): Conforms to | Purity by HPLC ([4]; 25° C./60% RH, 3 months): 99.70 area % | Total impurities ([4]; 25° C./60% RH, 3 months): 0.30 area % | Water by Karl Fischer analysis ([4]; 25° C./60% RH, 3 months): <0.1 % w/w | Appearance ([4]; 25° C./60% RH, Initial): Off-white | Assay by HPLC (on an anhydrous and solvent free basis) ([4]; 25° C./60% RH, Initial): 101.0 % w/w | DSC Tonset ([4]; 25° C./60% RH, Initial): 151.3 °C | DSC Tpeak ([4]; 25° C./60% RH, Initial): 152.9 °C | HPLC assay (on an “as is” basis) ([4]; 25° C./60% RH, Initial): 100.9 % w/w | Polymorph by XRPD ([4]; 25° C./60% RH, Initial): Conforms to | Purity by HPLC ([4]; 25° C./60% RH, Initial): 99.70 area % | Total impurities ([4]; 25° C./60% RH, Initial): 0.30 area % | Water by Karl Fischer analysis ([4]; 25° C./60% RH, Initial): <0.1 % w/w | Change in the XRPD diffractogram on storage ([4]; 25° C./60% RH): no change | Appearance ([4]; 40° C./75% RH, 1 month): Off-white | Assay by HPLC (on an anhydrous and solvent free basis) ([4]; 40° C./75% RH, 1 month): 99.5 % w/w | DSC Tonset ([4]; 40° C./75% RH, 1 month): 151.1 °C | DSC Tpeak ([4]; 40° C./75% RH, 1 month): 152.3 °C | HPLC assay (on an “as is” basis) ([4]; 40° C./75% RH, 1 month): 99.4 % w/w | Polymorph by XRPD ([4]; 40° C./75% RH, 1 month): Conforms to | Purity by HPLC ([4]; 40° C./75% RH, 1 month): 99.57 area % | Total impurities ([4]; 40° C./75% RH, 1 month): 0.43 area % | Water by Karl Fischer analysis ([4]; 40° C./75% RH, 1 month): <0.1 % w/w | Appearance ([4]; 40° C./75% RH, 3 months): Off-white | Assay by HPLC (on an anhydrous and solvent free basis) ([4]; 40° C./75% RH, 3 months): 100.0 % w/w | DSC Tonset ([4]; 40° C./75% RH, 3 months): 150.6 °C | DSC Tpeak ([4]; 40° C./75% RH, 3 months): 152.5 °C | HPLC assay (on an “as is” basis) ([4]; 40° C./75% RH, 3 months): 99.9 % w/w | Polymorph by XRPD ([4]; 40° C./75% RH, 3 months): Conforms to | Purity by HPLC ([4]; 40° C./75% RH, 3 months): 99.71 area % | Total impurities ([4]; 40° C./75% RH, 3 months): 0.29 area % | Water by Karl Fischer analysis ([4]; 40° C./75% RH, 3 months): 0.1 % w/w | Appearance ([4]; 40° C./75% RH, Initial): Off-white | Assay by HPLC (on an anhydrous and solvent free basis) ([4]; 40° C./75% RH, Initial): 101.0 % w/w | DSC Tonset ([4]; 40° C./75% RH, Initial): 151.3 °C | DSC Tpeak ([4]; 40° C./75% RH, Initial): 152.9 °C | HPLC assay (on an “as is” basis) ([4]; 40° C./75% RH, Initial): 100.9 % w/w | Polymorph by XRPD ([4]; 40° C./75% RH, Initial): Conforms to | Purity by HPLC ([4]; 40° C./75% RH, Initial): 99.70 area % | Total impurities ([4]; 40° C./75% RH, Initial): 0.30 area % | Water by Karl Fischer analysis ([4]; 40° C./75% RH, Initial): <0.1 % w/w | Change in the XRPD diffractogram on storage ([4]; 40° C./75% RH): no change | XRPD of solid after slurry versus starting form (Slurry studies): different to that of FIG. 2a

COCc1nn(Cc2ccc(Cn3ccccc3=O)cc2)cc1C(=O)NCc1nccc(OC)c1F [N-[(3-fluoro-4-methoxypyridin-2-yl)methyl]-3-(methoxymethyl)-1-({4-[(2-oxopyridin-1-yl)methyl]phenyl}methyl)pyrazole-4-carboxamide]
IC50 (Human KLK1): > 40 µM

Cl.NCC1CCC(C(=O)N[C@@H](Cc2ccccc2)C(=O)Nc2ccc(CC(=O)O)cc2)CC1 (stereo partly shown) [PKSI-527]
Effect on platelet count, fibrinogen level and FDP level [5]: significantly suppressed the decrease in platelet count and fibrinogen level as well as the increase in FDP level

Ecallantide
Activated clotting time (ACT) (blood): increase in activated clotting time (ACT) | Contact activated induced coagulation [6]: delay contact activated induced coagulation | Anaphylactic reactions [7]: risks of anaphylactic reactions
